Results published in patent US6534056B1, “Therapeutic and diagnostic uses of protein tyrosine phosphatase TC-PTP” (McGill University, priority 1998, dated 2003).

Legend:
[1] = tested on: EFM4−/− cells; assay: Survival (MTT conversion) 24 h after methyl methane-sulfonate treatment, TC-PTP knock-out cell line; assay type: cell-based, murine; conditions: 5 μM MMS, 24 h after treatment, FIG. 5D
Method: (§1) Cell proliferation and survival. Primary MEF+/+ and −/−, and TC-PTP+/+ and TC-PTP−/− cell, lines were seeded in 24-well cell culture plates at a density of […] in DMEM with 10% FBS. Cell number was determined after trypsinization by trypan blue exclusion or by MTT assay (Mosmann (1983) J. Immunol. Methods. 62:55-63) at day 1, 3, 5 and 7 after plating. Cells were treated with gamma- or UV-irradiation at doses indicated using a Gammacell 1000 (Atomic Energy of Canada) with a 137Cs source and Stratalinker (Stratagene) respectively. After irradiation, the cells were plated in triplicate on 24-well plates. Survival was evaluated by MTT viability assays 48 hr post-radiation.
(§2) The function of cell cycle checkpoints is to verify the physical status of the genomic DNA. […] To assess the effects of DNA-damaging agents such as γ-radiation, UV-C radiation and methyl methane-sulfonate (MMS) treatment on TC-PTP−/− cells, we first evaluated at different times after treatment, the effect of 1000 rads of γ-radiation on the survival of the EFM7+/+, EFM3+/− and EFM4−/− cells. […] Conversion of MTT was evaluated as a measure of survival at 8, 24 and 48 h after the treatment and it is expressed as the percentage of OD570 measurements of treated to untreated wells. […]
(§3) Another DNA-damaging agent used was MMS, which is a DNA alkylating agent that results in single-strand breaks. […] Results are expressed as in A.

[2] = tested on: EFM7+/+ cells; assay: Survival (MTT conversion) 24 h after methyl methane-sulfonate treatment, wild-type cell line; assay type: cell-based, murine; conditions: 5 μM MMS, 24 h after treatment, FIG. 5D
Method: as §1, §2, §3

SMILES: COS(C)(=O)=O [MMS, methyl methane-sulfonate]
- viability after MMS treatment [1]: strong decrease in the viability
- viability after MMS treatment [2]: slight decrease
